Test results reported in patent US10117848B2, “Highly water-soluble salts of a short acting phenylalkylamine calcium channel blocker and uses thereof” (Milestone Pharmaceuticals Inc., priority 2015, dated 2018).
Blank lines part the entries; values can stand above or below the molecule they belong to.

Tests used:
[1] = Solubility in aqueous solution; assay type: physicochemical; settings: acid addition salts of compound I
[2] = test system: patients suffering from an episode of PSVT; experiment: Nasal administration of acetate salt solutions to patients in a PSVT episode, monitored by electrocardiography; assay type: in vivo, human
Excerpt: A common method of measuring the effectiveness of a therapeutic agent in terminating an episode of a cardiac arrhythmia, such as PSVT, is by analysis of an electrocardiogram (ECG) recorded from a patient experiencing such an episode. […] One of the key features of healthy cardiac signaling is a temporal delay between the initiation of atrial and ventricular action potentials. A delay between signaling in the atria and ventricles is necessary for efficient pumping of blood. Signaling in the atria must proceed first, such that all blood in the atrial chambers is expelled into the ventricles before the ventricles contract. […]
It has been shown that an increase of at least 10% in the PR segment of an […] recorded from a patient suffering from a cardiac arrhythmia correlates well with a termination of the PSVT episode. […] The solutions that were administered to patients contained varying concentrations of the acetate salt of compound I. During the study, a solution containing a particular concentration of the acetate salt of compound I was administered to a patient experiencing an episode of PSVT, and the patient was monitored by electrocardiography throughout the duration of the experiment. […]

nasal epithelium = experiment: Permeation through the nasal epithelium with EDTA; settings: use of EDTA in the formulation
Excerpt: The nasal vestibule, which accounts for approximately 3-4% of the surface area of the nasal cavity, lacks tight junctions altogether and is thus not affected by calcium chelating agents. […] As such, it has been postulated that the nasal epithelium is not susceptible to permeability modulation by EDTA (Aungst, et al., Pharma. Res., 1998, 5:305-308). Additionally, the ability of EDTA to increase permeation of a compound through the nasal epithelium is attenuated as the molecular weight of the compound increases (Nakanishi, et al., Chem. Pharm. Bull., 1984, 32:1628-1632).

[3] = Homogeneity (no observable precipitation) of concentrated aqueous solutions on storage; assay type: physicochemical
[4] = test system: patients treated for an episode of PSVT; settings: intravenous; cited from earlier work
[5] = test system: patients suffering from an episode of PSVT; settings: therapeutic dose, intravenous; cited from earlier work
[6] = 300 mg/mL, 1 eq methanesulfonic acid, 10 mM sodium acetate, 5 mM disodium EDTA, pH 4.5
[7] = 350 mg/mL, 1 eq acetic acid, pH 4.5 with 3.6 M sulfuric acid
[8] = 400 mg/mL, 1 eq methanesulfonic acid, 10 mM sodium acetate, 5 mM disodium EDTA, pH 4.5

- solubility in aqueous solution [1]: high solubility
Compound: CC(=O)O.COC(=O)c1cccc(CCN(C)CCC[C@@](C#N)(c2ccc(OC)c(OC)c2)C(C)C)c1 [acetate salt of compound I]
- median PR prolongation ([2]; solutions containing 60 mg or greater of compound I, patients experiencing a PSVT episode, ECG): greater than 10%

- permeation through the nasal epithelium (nasal epithelium): increased the permeation
- homogeneity at 2-5° C. [3, 6]: remains homogeneous
- homogeneity at room temperature [3, 6]: remains homogeneous
- time solution remains homogeneous at 0° C. [3, 6]: at least 7 days
- homogeneity at room temperature [3, 7]: remains homogeneous
- time solution remains homogeneous at 10° C. [3, 7]: at least 3 days
- homogeneity at 2-5° C. [3, 8]: remains homogeneous
- homogeneity at room temperature [3, 8]: remains homogeneous
- time solution remains homogeneous at 0° C. [3, 8]: at least 7 days
- homogeneity at room temperature ([3]; highly concentrated solutions, 0.5-1.5 molar equivalents of acetic acid or methanesulfonic acid): remain homogeneous
- homogeneity at room temperature ([3]; over 500 mg/mL, 1 eq acetic acid, pH 4.5 with 3.6 M sulfuric acid): remains homogeneous
Compound: COC(=O)c1cccc(CCN(C)CCCC(C#N)(c2ccc(OC)c(OC)c2)C(C)C)c1 (stereo not shown) [compound I, methyl 3-(2-((4-cyano-4-(3,4-dimethoxyphenyl)-5-methylhexyl)(methyl)amino)ethyl)benzoate]
- effectiveness in terminating an episode of PSVT ([2]; dosage containing 60 mg of compound I): therapeutically effective

Compound: OC[C@H]1O[C@@H](n2cnc3c(N[C@@H]4CCOC4)ncnc32)[C@H](O)[C@@H]1O [tecadenoson]
- average PR prolongation [4]: 8.5%
- efficacy of PSVT termination [4]: approximately 86%
- patients treated who experienced relief from an episode of PSVT [4]: 32 out of 37

Compound: COc1ccc(CCN(C)CCCC(C#N)(c2ccc(OC)c(OC)c2)C(C)C)cc1OC (stereo not shown) [verapamil, 2-(3,4-dimethoxyphenyl)-5-[2-(3,4-dimethoxyphenyl)ethyl-methylamino]-2-propan-2-ylpentanenitrile]
- PR prolongation [5]: at least 10%
- efficacy for terminating the PSVT episode [5]: 85-90%
